Test results as given in EP4778931A1, “ULK1 INHIBITOR, PREPARATION METHOD THEREFOR AND USE THEREOF” (Dovetree Medicines Unus, Inc., priority 2023, dated 2025).

Test system: ATG13 phosphorylation level in MIA PaCa-2 cells
Experiment: Inhibition of ATG13 phosphorylation level in MIA PaCa-2 cells (Phospho-Atg13 (ser355) ELISA)
Assay type: cell-based
Details: Homo sapiens, Torin1 100 nM, 24 h incubation, 8 concentrations, highest 10 µM, read-out: pATG13 ELISA IC50
Description: The inhibitory effect of the compound of the present disclosure on ULK1 was evaluated by testing the inhibitory effect of the compound of the present disclosure on ATG13 phosphorylation level in MIA PaCa-2 cells.
MIA PaCa-2 cells (ATCC, CRM-CRL-1420) were cultured in a complete medium, namely, a DMEM medium (Gibco, 11965-092) containing 10% fetal bovine serum (Corning, 35-081-CV), 2.5% horse serum (Gibco, 16050-122) and 1% double antibody (Gibco, 15140-122). The experiments were performed according to the requirements of the kit (Cell Signaling Technology, 17208C).
Cell plating: MIA PaCa-2 at 80% growth confluence were digested, diluted with the complete medium, and added to a 96-well cell culture plate (Costar, 3596) at 20,000 cells per well, with a volume of 90 µL.
Compound incubation: 5 µL of Torin1 and 5 µL of a serially diluted compound were added to each well so that the highest concentration of the compound in the reaction system was 10 µM. 5-fold serial dilution with 8 concentrations was performed, and the final concentration of Torin1 was 100 nM. The DMSO content in the system was 0.1%. The reaction plate was placed in an incubator at 37°C in 5% CO2, and was incubated for 24 h. 10 µL of Torin1 was added to the negative control wells (NC) to a final concentration of 100 nM, with a DMSO content of 0.1%.
Reaction detection: After the incubation was completed, the cell plate was washed with a pre-cooled DPBS (Corning, 21-031-CVC) to wash away the compound and medium. 50 µL of pre-cooled cell lysis solution was added to each well, incubated on ice for 10 min. The cell plate was centrifuged, and the supernatant was transfered to an ELISA reaction plate. Simultaneously, 50 µL of Phospho-Atg13 (ser355) rabbit detection antibody was added, followed by incubation at room temperature under shaking for 60 min. After the incubation was completed, the reaction plate was washed with a washing solution for 4 times. 100 µL of TMB substrate was added for color development reaction, followed by incubation under shaded conditions with shaking for 15 min. Finally, 100 µL of stop solution was added to each well. The reaction was terminated by shaking for 10 s, and the absorbance value at 450 nm and 560 nm were collected within 10 min using Envision (Perkin Elmer, EnVision 2105).
The inhibition ratio was calculated by subtracting the absorbance value at […] from the absorbance value at 450 nm for each well. The inhibition ratio formula is as follows: [formula]
The dose-effect curve was fitted using the log (inhibitor) vs. response -Variable slope of Graphpad Prism8, thereby affording the IC50 value of each compound for inhibiting ATG13 phosphorylation level.

| SMILES | IC50 |
| --- | --- |
| CN1CCN2c3ccc(Nc4ncc(C(F)(F)F)c(OCCCn5cccn5)n4)cc3COCC2C1 (centres unmarked) [Compound 23] | > 1 µM |
| CN1CCN2c3ccc(Nc4ncc(C(F)(F)F)c(N5CC6(CCN(C)C6)C5)n4)cc3COCC2C1 (centres unmarked) [Compound 20] | 0.1 to 1 µM |
| CN1CCN2c3ccc(Nc4ncc(C(F)(F)F)c(N5CCC(n6cccn6)CC5)n4)cc3COCC2C1 (centres unmarked) [Compound 4] | > 1 µM |
| CN1CCN2c3ccc(Nc4ncc(C(F)(F)F)c(NCCCn5cccn5)n4)cc3COCC2C1 (centres unmarked) [Compound 8] | > 1 µM |
| CN1CCN2c3ccc(Nc4ncc(C(F)(F)F)c(N5CCC6(CCN(C)C6)CC5)n4)cc3COCC2C1 (centres unmarked) [Compound 2] | > 1 µM |
| CN1CCN2c3ccc(Nc4ncc(C(F)(F)F)c(N[C@H]5CC[C@@H](n6cccn6)CC5)n4)cc3COCC2C1 (some centres unmarked) [Compound 6] | 0.1 to 1 µM |
| CN1CCN2c3ccc(Nc4ncc(C(F)(F)F)c(OCCCN5CCCCC5=O)n4)cc3OCC2C1 (centres unmarked) [Compound 12] | 0.1 to 1 µM |
| CN1CCN2c3ccc(Nc4ncc(C(F)(F)F)c(OCCCc5ccccc5C#N)n4)cc3COCC2C1 (centres unmarked) [Compound 9] | 0.1 to 1 µM |
| CN1CCN2c3ccc(Nc4ncc(C(F)(F)F)c(N5CCN(C)C(=O)C5)n4)cc3COCC2C1 (centres unmarked) [Compound 1] | > 1 µM |
| CN1CCN2c3ccc(Nc4ncc(C(F)(F)F)c(NCCCN5CCCCC5=O)n4)cc3COCC2C1 (centres unmarked) [Compound 11] | < 0.1 µM |
| CN1CCN2c3ccc(Nc4ncc(C(F)(F)F)c(N5CCC6(CCN(C)C6)C5)n4)cc3COCC2C1 (centres unmarked) [Compound 5] | 0.1 to 1 µM |
| CN1CCN2c3ccc(Nc4ncc(C(F)(F)F)c(N5CC6(CN(C)C6)C5)n4)cc3COCC2C1 (centres unmarked) [Compound 22] | 0.1 to 1 µM |
| CN1CCN2c3ccc(Nc4ncc(C(F)(F)F)c(OCCCN5CCCCC5=O)n4)cc3COCC2C1 (centres unmarked) [Compound 3] | 0.1 to 1 µM |
| CN1CCN2c3ccc(Nc4ncc(C(F)(F)F)c(NC5CCN(C(=O)C6CCC6)CC5)n4)cc3COCC2C1 (centres unmarked) [Compound 21] | > 1 µM |
